Patent US12448399B2, “Cereblon-based KRAS degrading PROTACs and uses related thereto” (Arvinas Operations, Inc., priority 2023, dated 2025)

Target: T1, KRas-G12D (Homo sapiens, UniProt P01116, G12D)
T1 construct: insert the HiBiT tag onto the N-terminus of one or more of the endogenous KRas alleles; host or cells: AsPC-1 HiBiT-KRasG12D knock-in clone (one tagged allele, two untagged KRasG12D alleles)
Assay: HiBiT Degradation Assay (G12D), AsPC-1 HiBiT-KRasG12D cells, 24 hr
Format: cell-based
Settings: for DC50: AsPC-1 cells; for Dmax: ASPC1, AsPC-1 cells, maximum degradation observed
Outline: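 Degradation was read after 24 hr compound exposure (0.5% DMSO, 37° C) by Nano-Glo HiBiT lytic luminescence in AsPC-1 cells carrying a HiBiT tag on one of three KRasG12D alleles. Signal relative to DMSO gave DC50 and Dmax by 4-parameter fit; alamar blue fluorescence monitored cytotoxicity.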

T1 sequence (P01116 1-188 isoform P01116-2 G12D): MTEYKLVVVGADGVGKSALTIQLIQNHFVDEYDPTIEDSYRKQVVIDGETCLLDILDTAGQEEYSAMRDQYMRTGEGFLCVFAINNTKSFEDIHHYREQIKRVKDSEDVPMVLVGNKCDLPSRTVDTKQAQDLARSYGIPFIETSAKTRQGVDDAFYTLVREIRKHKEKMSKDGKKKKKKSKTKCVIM

| Compound | DC50 | Dmax |
| --- | --- | --- |
| C#Cc1c(F)ccc2cc(O)cc(-c3ncc4c(N5CC6CCC(C5)N6)nc(OC[C@@H]5CC[C@@H](CN6CCN(CC7CCN(c8ccc9c(c8)n(C(C)C)c(=O)n9C8CCC(=O)NC8=O)CC7)CC6)N5C)nc4c3F)c12 (stereo partly drawn) [Compound 211, 3-(5-{4-[(4-{[(2S,5S)-5-{[(4-{3,8-diazabicyclo[3.2.1]octan-3-yl}-7-(8-ethynyl-7-fluoro-3-hydroxynaphthalen-1-yl)-8-fluoropyrido[4,3-d]pyrimidin-2-yl)oxy]methyl}-1-methylpyrrolidin-2-yl]methyl}piperazin-1-yl)methyl]piperidin-1-yl}-2-oxo-3-(propan-2-yl)-2,3-dihydro-1H-1,3-benzodiazol-1-yl)piperidine-2,6-dione] | < 5.1 µM |  |
| CCc1c(F)ccc2cc(O)cc(-c3ncc4c(N5CC6CCC(C5)N6)nc(OCCN5CCC(CC6CCN(CC7CCN(c8ccc9c(c8)n(C(C)C)c(=O)n9C8CCC(=O)NC8=O)CC7)CC6)CC5)nc4c3F)c12 (stereo not drawn) [Compound 212, 3-{5-[4-({4-[(1-{2-[(4-{3,8-diazabicyclo[3.2.1]octan-3-yl}-7-(8-ethyl-7-fluoro-3-hydroxynaphthalen-1-yl)-8-fluoropyrido[4,3-d]pyrimidin-2-yl)oxy]ethyl}piperidin-4-yl)methyl]piperidin-1-yl}methyl)piperidin-1-yl]-2-oxo-3-(propan-2-yl)-2,3-dihydro-1H-1,3-benzodiazol-1-yl}piperidine-2,6-dione] | < 5.1 µM | > 70% |
| C#Cc1c(F)ccc2cc(O)cc(-c3ncc4c(N5CC6CCC(C5)N6)nc(OC[C@@H]5C[C@@H](OC6CCN(CC7CCN(c8ccc9c(c8F)n(C)c(=O)n9C8CCC(=O)NC8=O)CC7)CC6)CN5C)nc4c3F)c12 (stereo partly drawn) [Compound 213, 3-(5-{4-[(4-{[(3R,5S)-5-{[(4-{3,8-diazabicyclo[3.2.1]octan-3-yl}-7-(8-ethynyl-7-fluoro-3-hydroxynaphthalen-1-yl)-8-fluoropyrido[4,3-d]pyrimidin-2-yl)oxy]methyl}-1-methylpyrrolidin-3-yl]oxy}piperidin-1-yl)methyl]piperidin-1-yl}-4-fluoro-3-methyl-2-oxo-2,3-dihydro-1H-1,3-benzodiazol-1-yl)piperidine-2,6-dione] | < 5.1 µM | > 70% |
| C#Cc1c(F)ccc2cc(O)cc(-c3ncc4c(N5CC6CCC(C5)N6)nc(OCCN5CCC(CC6CCN(CC7CCN(c8ccc9c(c8F)CN([C@H]8CCC(=O)NC8=O)C9=O)CC7)CC6)CC5)nc4c3F)c12 [Compound 214, (3S)-3-{5-[4-({4-[(1-{2-[(4-{3,8-diazabicyclo[3.2.1]octan-3-yl}-7-(8-ethynyl-7-fluoro-3-hydroxynaphthalen-1-yl)-8-fluoropyrido[4,3-d]pyrimidin-2-yl)oxy]ethyl}piperidin-4-yl)methyl]piperidin-1-yl}methyl)piperidin-1-yl]-4-fluoro-1-oxo-2,3-dihydro-1H-isoindol-2-yl}piperidine-2,6-dione] | < 5.1 µM | > 70% |
| C#Cc1c(F)ccc2cc(O)cc(-c3ncc4c(N5CC6CCC(C5)N6)nc(OCCN5CCC(CC6CCN(CC7CCN(c8ccc9c(c8)CN([C@H]8CCC(=O)NC8=O)C9=O)CC7)CC6)CC5)nc4c3F)c12 [Compound 215, (3S)-3-{5-[4-({4-[(1-{2-[(4-{3,8-diazabicyclo[3.2.1]octan-3-yl}-7-(8-ethynyl-7-fluoro-3-hydroxynaphthalen-1-yl)-8-fluoropyrido[4,3-d]pyrimidin-2-yl)oxy]ethyl}piperidin-4-yl)methyl]piperidin-1-yl}methyl)piperidin-1-yl]-1-oxo-2,3-dihydro-1H-isoindol-2-yl}piperidine-2,6-dione] | < 5.1 µM | > 70% |
| C#Cc1c(F)ccc2cc(O)cc(-c3ncc4c(N5CC6CCC(C5)N6)nc(OCCN5CCC(CC6CCN(CC7CCN(c8ccc9c(c8)CN([C@@H]8CCC(=O)NC8=O)C9=O)CC7)CC6)CC5)nc4c3F)c12 [Compound 216, (3R)-3-{5-[4-({4-[(1-{2-[(4-{3,8-diazabicyclo[3.2.1]octan-3-yl}-7-(8-ethynyl-7-fluoro-3-hydroxynaphthalen-1-yl)-8-fluoropyrido[4,3-d]pyrimidin-2-yl)oxy]ethyl}piperidin-4-yl)methyl]piperidin-1-yl}methyl)piperidin-1-yl]-1-oxo-2,3-dihydro-1H-isoindol-2-yl}piperidine-2,6-dione] | < 5.1 µM | > 70% |
| C#Cc1c(F)ccc2cc(O)cc(-c3ncc4c(N5CC6CCC(C5)N6)nc(OCCN5CCC(CC6CCN(CC7CCN(c8ccc9c(c8F)n(C(C)C)c(=O)n9C8CCC(=O)NC8=O)CC7)CC6)CC5)nc4c3F)c12 (stereo not drawn) [Compound 217, 3-{5-[4-({4-[(1-{2-[(4-{3,8-diazabicyclo[3.2.1]octan-3-yl}-7-(8-ethynyl-7-fluoro-3-hydroxynaphthalen-1-yl)-8-fluoropyrido[4,3-d]pyrimidin-2-yl)oxy]ethyl}piperidin-4-yl)methyl]piperidin-1-yl}methyl)piperidin-1-yl]-4-fluoro-2-oxo-3-(propan-2-yl)-2,3-dihydro-1H-1,3-benzodiazol-1-yl}piperidine-2,6-dione] | < 5.1 µM | > 70% |
| C#Cc1c(F)ccc2cc(O)cc(-c3ncc4c(N5CC6CCC(C5)N6)nc(OCCN5CCC6(CC5)CCN(CC5CCN(c7ccc8c(c7)n(C)c(=O)n8C7CCC(=O)NC7=O)CC5)CC6)nc4c3F)c12 (stereo not drawn) [Compound 218, 3-(5-{4-[(9-{2-[(4-{3,8-diazabicyclo[3.2.1]octan-3-yl}-7-(8-ethynyl-7-fluoro-3-hydroxynaphthalen-1-yl)-8-fluoropyrido[4,3-d]pyrimidin-2-yl)oxy]ethyl}-3,9-diazaspiro[5.5]undecan-3-yl)methyl]piperidin-1-yl}-3-methyl-2-oxo-2,3-dihydro-1H-1,3-benzodiazol-1-yl)piperidine-2,6-dione] | < 5.1 µM | > 70% |
| C#Cc1c(F)ccc2cc(O)cc(-c3ncc4c(N5CC6CCC(C5)N6)nc(OCCN5CCC(CN6CCN(CC7CCN(c8ccc9c(c8Cl)CN(C8CCC(=O)NC8=O)C9=O)CC7)CC6)CC5)nc4c3F)c12 (stereo not drawn) [Compound 219, 3-[4-chloro-5-[4-[[4-[[1-[2-[4-(3,8-diazabicyclo[3.2.1]octan-3-yl)-7-(8-ethynyl-7-fluoro-3-hydroxy-1-naphthyl)-8-fluoro-pyrido[4,3-d]pyrimidin-2-yl]oxyethyl]-4-piperidyl]methyl]piperazin-1-yl]methyl]-1-piperidyl]-1-oxo-isoindolin-2-yl]piperidine-2,6-dione] | < 5.1 µM | > 70% |
| C#Cc1c(F)ccc2cc(O)cc(-c3ncc4c(N5CC6CCC(C5)N6)nc(OCCN5CCC6(CC5)CCN(CC5CCN(c7ccc8c(c7Cl)CN(C7CCC(=O)NC7=O)C8=O)CC5)CC6)nc4c3F)c12 (stereo not drawn) [Compound 220, 3-(4-chloro-5-{4-[(9-{2-[(4-{3,8-diazabicyclo[3.2.1]octan-3-yl}-7-(8-ethynyl-7-fluoro-3-hydroxynaphthalen-1-yl)-8-fluoropyrido[4,3-d]pyrimidin-2-yl)oxy]ethyl}-3,9-diazaspiro[5.5]undecan-3-yl)methyl]piperidin-1-yl}-1-oxo-2,3-dihydro-1H-isoindol-2-yl)piperidine-2,6-dione] | < 5.1 µM | > 70% |
| C#Cc1c(F)ccc2cc(O)cc(-c3ncc4c(N5CC6CCC(C5)N6)nc(OCCN5CCC(CN6CCN(CC7CCN(c8ccc9c(c8)n(C)c(=O)n9C8CCC(=O)NC8=O)CC7)CC6)CC5)nc4c3F)c12 (stereo not drawn) [Compound 221, 3-{5-[4-({4-[(1-{2-[(4-{3,8-diazabicyclo[3.2.1]octan-3-yl}-7-(8-ethynyl-7-fluoro-3-hydroxynaphthalen-1-yl)-8-fluoropyrido[4,3-d]pyrimidin-2-yl)oxy]ethyl}piperidin-4-yl)methyl]piperazin-1-yl}methyl)piperidin-1-yl]-3-methyl-2-oxo-2,3-dihydro-1H-1,3-benzodiazol-1-yl}piperidine-2,6-dione] | < 5.1 µM | > 70% |
| C#Cc1c(F)ccc2cc(O)cc(-c3ncc4c(N5CC6CCC(C5)N6)nc(OCCN5CCC(CN6CCN(CC7CCN(c8ccc9c(c8)n(C(C)C)c(=O)n9C8CCC(=O)NC8=O)CC7)CC6)CC5)nc4c3F)c12 (stereo not drawn) [Compound 222, 3-{5-[4-({4-[(1-{2-[(4-{3,8-diazabicyclo[3.2.1]octan-3-yl}-7-(8-ethynyl-7-fluoro-3-hydroxynaphthalen-1-yl)-8-fluoropyrido[4,3-d]pyrimidin-2-yl)oxy]ethyl}piperidin-4-yl)methyl]piperazin-1-yl}methyl)piperidin-1-yl]-2-oxo-3-(propan-2-yl)-2,3-dihydro-1H-1,3-benzodiazol-1-yl}piperidine-2,6-dione] | < 5.1 µM | > 70% |
| C#Cc1c(F)ccc2cc(O)cc(-c3ncc4c(N5CC6CCC(C5)N6)nc(OCCN5CCC(CN6CCC(CN7CCN(c8ccc9c(c8F)CN(C8CCC(=O)NC8=O)C9=O)CC7)CC6)CC5)nc4c3F)c12 (stereo not drawn) [Compound 223, 3-{5-[4-({1-[(1-{2-[(4-{3,8-diazabicyclo[3.2.1]octan-3-yl}-7-(8-ethynyl-7-fluoro-3-hydroxynaphthalen-1-yl)-8-fluoropyrido[4,3-d]pyrimidin-2-yl)oxy]ethyl}piperidin-4-yl)methyl]piperidin-4-yl}methyl)piperazin-1-yl]-4-fluoro-1-oxo-2,3-dihydro-1H-isoindol-2-yl}piperidine-2,6-dione] | < 5.1 µM | > 70% |
| C#Cc1c(F)ccc2cc(O)cc(-c3ncc4c(N5CC6CCC(C5)N6)nc(OC[C@@H]5C[C@@H](OC6CCN(CC7CCN(c8ccc9c(c8F)n(C(C)C)c(=O)n9C8CCC(=O)NC8=O)CC7)CC6)CN5C)nc4c3F)c12 (stereo partly drawn) [Compound 224, 3-(5-{4-[(4-{[(3R,5S)-5-{[(4-{3,8-diazabicyclo[3.2.1]octan-3-yl}-7-(8-ethynyl-7-fluoro-3-hydroxynaphthalen-1-yl)-8-fluoropyrido[4,3-d]pyrimidin-2-yl)oxy]methyl}-1-methylpyrrolidin-3-yl]oxy}piperidin-1-yl)methyl]piperidin-1-yl}-4-fluoro-2-oxo-3-(propan-2-yl)-2,3-dihydro-1H-1,3-benzodiazol-1-yl)piperidine-2,6-dione] | < 5.1 µM | > 70% |
